Results as given in patent publication US12162848B2, “Inhibitors of protein tyrosine phosphatase, compositions, and methods of use” (BRISTOL-MYERS SQUIBB COMPANY, priority 2022, dated 2024).

Columns and labels:
[1] = test system: phosphorylated STAT1 protein levels in B16-F10 cells; assay: Phospho-STAT1 (Tyr701) HTRF assay in IFN-gamma treated B16-F10 cells; format: cell-based; conditions: mouse IFN-gamma 100 ng/mL, 1 hour, read-out: pSTAT1 HTRF B16 EC50
Experimental: B16-F10 cells (ATCC, Manassas, VA, #CRL-6475) were cultured in DMEM growth medium (ThermoFisher Scientific, Waltham, MA, #11995-040) supplemented with 10% heat inactivated FBS (ThermoFisher Scientific, #16140-071) and 1% pen/strep (ThermoFisher Scientific, #15140-122). The cells were seeded into a white opaque 384-well tissue culture treated microplate (PerkinElmer, Waltham, MA, #6007688) at a density of 10,000 cells/well in 20 uL total volume and incubated overnight at 37 C and 5% CO2. 30 nL of compounds dissolved in DMSO were then transferred from a source plate into target wells with the Echo650 acoustic liquid handler (Beckman Coulter, Indianapolis, IN). Negative control wells received 30 nL of DMSO only (0.15% final concentration). Plates were returned to the incubator for 1 hour and then cells treated with either 5 uL of growth medium or 5 uL of growth medium containing 500 ng/mL of recombinant mouse IFN-gamma protein (R&D Systems, Minneapolis, MN, #485-MI/CF, 100 ng/mL final concentration) using the Assist automated pipetting platform (INTEGRA Biosciences, Hudson, NH). Plates were incubated at 37 C for 1 hour and assayed for phosphorylated STAT1 protein levels with the phospho-STAT1 (Tyr701) HTRF kit (Cisbio, Bedford, MA, #63ADK026PEH) according to manufacturer's instructions.

[2] = test system: B16-F10 cells; assay: Cell proliferation assay (CellTiter-Glo) in IFN-gamma treated B16-F10 cells; format: cell-based; conditions: 120 h, mouse IFN-gamma 10 ng/mL, read-out: PTPN2 Prolif 5d B16F10 EC50
Experimental: B16-F10 cells (ATCC, Manassas, VA, #CRL-6475) were cultured in DMEM growth medium (ThermoFisher Scientific, Waltham, MA, #11995-040) supplemented with 10% heat inactivated FBS (ThermoFisher Scientific, #16140-071) and 1% pen/strep (ThermoFisher Scientific, #15140-122). The cells were seeded into two white opaque 384-well tissue culture treated microplates (PerkinElmer, Waltham, MA, #6007688) at a density of 100 cells/well in 20 uL total volume and incubated overnight at 37 C and 5% CO2. 30 nL of compounds dissolved in DMSO were then transferred from a source plate into target wells with the Echo650 acoustic liquid handler (Beckman Coulter, Indianapolis, IN). Negative control wells received 30 nL of DMSO only (0.15% final concentration). Plates were returned to the incubator for 1 hour and then cells treated with either 5 uL of growth medium or 5 uL of growth medium containing 50 ng/mL of recombinant mouse IFN-gamma protein (R&D Systems, Minneapolis, MN, #485-MI/CF, 10 ng/mL final concentration) using the Assist automated pipetting platform (INTEGRA Biosciences, Hudson, NH). Plates were incubated at 37 C for 4 days and cell proliferation assayed with the CellTiter-Glo reagent (Promega, Madison, WI, #G7573, 25 uL per well). […] Off-target compound mediated cytotoxicity was identified by checking for growth inhibition in the absence of IFNg.

[3] = molecular target: T1, PTPN2 enzyme (Homo sapiens, UniProt P17706); assay: PhosphoSens PTPN2 biochemical assay; conditions: substrate AQT0264 20 μM, room temperature; read-out: PTPN2 BCHEM IC50
T1 sequence (P17706 1-415): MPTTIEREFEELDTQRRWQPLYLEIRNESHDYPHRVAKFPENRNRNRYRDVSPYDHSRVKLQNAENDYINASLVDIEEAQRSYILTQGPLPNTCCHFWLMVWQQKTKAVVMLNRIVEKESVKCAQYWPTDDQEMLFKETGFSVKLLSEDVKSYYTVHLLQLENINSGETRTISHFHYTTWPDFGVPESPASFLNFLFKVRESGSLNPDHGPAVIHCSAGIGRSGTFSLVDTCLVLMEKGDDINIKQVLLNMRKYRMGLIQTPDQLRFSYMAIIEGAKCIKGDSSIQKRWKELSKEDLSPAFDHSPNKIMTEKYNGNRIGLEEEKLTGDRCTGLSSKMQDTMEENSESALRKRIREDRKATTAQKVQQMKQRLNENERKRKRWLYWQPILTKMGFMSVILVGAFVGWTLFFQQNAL
Experimental: A PhosphoSens® kinase assay was performed as described by the vendor (AssayQuant Technologies, Marlborough, MA). Briefly, 1000×solutions of compounds were prepared in DMSO via serial dilution of the 10 mM DMSO stocks using 3-fold intervals in a 384-well reagent plate. 50 nL of the compound dilution series was then added to the corresponding wells of a 384-well assay plate. […] of 1.25×substrate (AQT0264) in 1× assay buffer (50 mM HEPES pH 7.5, 500 μM EGTA, […] MgCl2, 0.01% Brij-35, 1% Glycerol, 1 mM DTT, and 0.2 mg/mL BSA) was transferred to each well of the assay plate to achieve a final substrate concentration of 20 μM. Finally, […] of 5×PTPN2 enzyme stock was added to each well of the assay plate for a final enzyme concentration of […]. Reaction progress curves were collected by sampling fluorescence intensity at the excitation wavelength 360 nm (λex360) and emission wavelength 480 nm (λem480) every 71 seconds for one hour using a Synergy H4 plate reader (BioTek Instruments/Agilent Technologies, Winooski, VT) at room temperature.

SMILES	EC50 [1]	EC50 [2]	IC50 [3]
O=C1CN(c2c(O)cc(-c3cccnc3)cc2F)S(=O)(=O)N1 [EXAMPLE 8, 5-(2-fluoro-6-hydroxy-4-(pyridin-3-yl)phenyl)-1,2,5-thiadiazolidin-3-one 1,1-dioxide]	2.43 µM	≥ 15 µM	199 nM
O=C1CN(c2c(O)cc(-c3ccncc3)cc2F)S(=O)(=O)N1 [EXAMPLE 9, 5-(2-fluoro-6-hydroxy-4-(pyridin-4-yl)phenyl)-1,2,5-thiadiazolidin-3-one 1,1-dioxide]	≥ 15 µM	≥ 15 µM	322 nM
O=C1CN(c2c(O)cc(-c3ccc(Cc4ccccc4)cc3)cc2F)S(=O)(=O)N1 [EXAMPLE 10, 5-[4-(4-benzylphenyl)-2-fluoro-6-hydroxy-phenyl]-1,1-dioxo-1,2,5-thiadiazolidin-3-one]	≥ 15 µM	≥ 15 µM	6140 nM
O=C1CN(c2c(O)cc(-c3cccc(-c4ccccc4)c3)cc2F)S(=O)(=O)N1 [EXAMPLE 11, 5-[2-fluoro-6-hydroxy-4-(3-phenylphenyl)phenyl]-1,1-dioxo-1,2,5-thiadiazolidin-3-one]	≥ 15 µM	≥ 15 µM	1340 nM
O=C1CN(c2c(O)cc(-c3ccc(-c4ccc(F)cc4)cc3)cc2F)S(=O)(=O)N1 [EXAMPLE 12, 5-[2-fluoro-4-[4-(4-fluorophenyl)phenyl]-6-hydroxy-phenyl]-1,1-dioxo-1,2,5-thiadiazolidin-3-one]	≥ 15 µM	≥ 15 µM	1990 nM
O=C1CN(c2c(O)cc(-c3ccc(N4CCOCC4)cc3)cc2F)S(=O)(=O)N1 [EXAMPLE 13, 5-[2-fluoro-6-hydroxy-4-(4-morpholinophenyl)phenyl]-1,1-dioxo-1,2,5-thiadiazolidin-3-one]	≥ 15 µM	≥ 15 µM	466 nM
O=C1CN(c2c(O)cc(-c3cccc(Oc4ccccc4)c3)cc2F)S(=O)(=O)N1 [EXAMPLE 14, 5-[2-fluoro-6-hydroxy-4-(3-phenoxyphenyl)phenyl]-1,1-dioxo-1,2,5-thiadiazolidin-3-one]	≥ 15 µM	≥ 15 µM	2210 nM
CC(C)Cc1ccc(-c2cc(O)c(N3CC(=O)NS3(=O)=O)c(F)c2)cc1 [EXAMPLE 15, 5-[2-fluoro-6-hydroxy-4-(4-isobutylphenyl)phenyl]-1,1-dioxo-1,2,5-thiadiazolidin-3-one]	≥ 15 µM	≥ 15 µM	2480 nM
O=C1CN(c2c(O)cc(-c3cccc(N4CCOCC4)c3)cc2F)S(=O)(=O)N1 [EXAMPLE 16, 5-[2-fluoro-6-hydroxy-4-(3-morpholinophenyl)phenyl]-1,1-dioxo-1,2,5-thiadiazolidin-3-one]	≥ 15 µM	≥ 15 µM	423 nM
O=C1CN(c2c(O)cc(-c3ccc(C4CC4)cc3)cc2F)S(=O)(=O)N1 [EXAMPLE 17, 5-[4-(4-cyclopropylphenyl)-2-fluoro-6-hydroxy-phenyl]-1,1-dioxo-1,2,5-thiadiazolidin-3-one]	7.95 µM	≥ 15 µM	1410 nM
O=C1CN(c2c(O)cc(-c3cc(-c4ccccc4)cs3)cc2F)S(=O)(=O)N1 [EXAMPLE 18, 5-[2-fluoro-6-hydroxy-4-(4-phenyl-2-thienyl)phenyl]-1,1-dioxo-1,2,5-thiadiazolidin-3-one]	≥ 15 µM	≥ 15 µM	1190 nM

Continued, values first:

EC50 [1]	EC50 [2]	IC50 [3]	SMILES
≥ 15 µM	≥ 15 µM	483 nM	O=C1CN(c2c(O)cc(-c3ccc(CN4CCCC4)cc3)cc2F)S(=O)(=O)N1 [EXAMPLE 19, 5-[2-fluoro-6-hydroxy-4-[4-(pyrrolidin-1-ylmethyl)phenyl]phenyl]-1,1-dioxo-1,2,5-thiadiazolidin-3-one]
≥ 15 µM	≥ 15 µM	205 nM	O=C1CN(c2c(O)cc(-c3ccnc(-c4ccccc4)c3)cc2F)S(=O)(=O)N1 [EXAMPLE 20, 5-[2-fluoro-6-hydroxy-4-(2-phenyl-4-pyridyl)phenyl]-1,1-dioxo-1,2,5-thiadiazolidin-3-one]
≥ 15 µM	≥ 15 µM	6960 nM	Cc1cc(OCC2CC2)cc(-c2cc(O)c(N3CC(=O)NS3(=O)=O)c(F)c2)c1 [EXAMPLE 21, 5-[4-[3-(cyclopropylmethoxy)-5-methyl-phenyl]-2-fluoro-6-hydroxy-phenyl]-1,1-dioxo-1,2,5-thiadiazolidin-3-one]
≥ 15 µM	≥ 15 µM	179 nM	CC(C)(O)c1ccc(-c2cc(O)c(N3CC(=O)NS3(=O)=O)c(F)c2)cc1 [EXAMPLE 22, 5-[2-fluoro-6-hydroxy-4-[4-(1-hydroxy-1-methyl-ethyl)phenyl]phenyl]-1,1-dioxo-1,2,5-thiadiazolidin-3-one]
≥ 15 µM	≥ 15 µM	142 nM	COc1ccc(-c2cc(O)c(N3CC(=O)NS3(=O)=O)c(F)c2)cn1 [EXAMPLE 23, 5-[2-fluoro-6-hydroxy-4-(6-methoxy-3-pyridyl)phenyl]-1,1-dioxo-1,2,5-thiadiazolidin-3-one]
≥ 15 µM	≥ 15 µM	190 nM	O=C1CN(c2c(O)cc(-c3cnc4ccccc4c3)cc2F)S(=O)(=O)N1 [EXAMPLE 24, 5-[2-fluoro-6-hydroxy-4-(3-quinolyl)phenyl]-1,1-dioxo-1,2,5-thiadiazolidin-3-one]
2.18 µM	3.11 µM	10 nM	O=C1CN(c2c(O)cc(-c3ccc(O)nc3)cc2F)S(=O)(=O)N1 [EXAMPLE 26, 5-[2-fluoro-6-hydroxy-4-(6-hydroxy-3-pyridyl)phenyl]-1,1-dioxo-1,2,5-thiadiazolidin-3-one]
≥ 15 µM	≥ 15 µM	457 nM	CN1CCN(c2ccc(-c3cc(O)c(N4CC(=O)NS4(=O)=O)c(F)c3)cn2)CC1 [EXAMPLE 27, 5-[2-fluoro-6-hydroxy-4-[6-(4-methylpiperazin-1-yl)-3-pyridyl]phenyl]-1,1-dioxo-1,2,5-thiadiazolidin-3-one]
≥ 15 µM	7.83 µM	89 nM	COc1cncc(-c2cc(O)c(N3CC(=O)NS3(=O)=O)c(F)c2)c1 [EXAMPLE 28, 5-[2-fluoro-6-hydroxy-4-(5-methoxy-3-pyridyl)phenyl]-1,1-dioxo-1,2,5-thiadiazolidin-3-one]
≥ 15 µM	≥ 15 µM	90 nM	CN(C)c1ccc(-c2cc(O)c(N3CC(=O)NS3(=O)=O)c(F)c2)cn1 [EXAMPLE 29, 5-[4-[6-(dimethylamino)-3-pyridyl]-2-fluoro-6-hydroxy-phenyl]-1,1-dioxo-1,2,5-thiadiazolidin-3-one]
